Data as given in article PMC5011342, “A high throughput drug screening assay to identify compounds that promote oligodendrocyte differentiation using acutely dissociated and purified oligodendrocyte precursor cells” (BMC Research Notes, 2016).
Structures can show the parent of a compound that is named as a salt. Where two headings read alike, the source gives them in different places.

Experiments:
expanded OPCs = assay: cells; settings: for viability at 0.1 µM / viability at 1 µM / viability at 10 µM: Rattus norvegicus, 72 h
In short: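 Toxicity screen: compounds added at 0.1, 1 and 10 µM to PDGF-AA-expanded OPCs in 96-well plates, 3-day incubation at 37 °C, 10% CO2, then alamarBlue 1:10 for 4 h with fluorescence readout. Results set screening doses of 10/2, 2/0.4 or 0.4/0.08 µM.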

[1] = tested on: acutely dissociated and purified rat OPCs; assay: Acute OL differentiation assay (MBP expression/cell, immunofluorescent image quantification); type: cell-based
In short: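 This acute differentiation assay used purified rat OPCs from postnatal day 6–7 pups, seeded into PDL/laminin-coated 96-well plates in differentiation medium lacking PDGF and FGF. Compounds were applied in quadruplicate after a 1–2 h preincubation at 37 °C, 10 % CO2, with 0.1 % DMSO negative and 40 ng/ml T3 positive controls in eight wells. After fixation on DIV4, anti-MBP immunofluorescence images yielded MBP expression/cell.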

[2] = read-out: 0.1 µM (% DMSO), alamarBlue viability, NCC library compound at 0.1 µM, sheet "All Tox data"
[3] = read-out: 1 µM (% DMSO), alamarBlue viability, NCC library compound at 1 µM, sheet "All Tox data"
[4] = read-out: 10 µM (% DMSO), alamarBlue viability, NCC library compound at 10 µM, sheet "All Tox data"
[5] = Rattus norvegicus, test compound at 0.4 uM, NCC library screen, sheet "All OLga data", relative to quetiapine, read-out: 0.4 uM (% Quet)
[6] = Rattus norvegicus, test compound at 2 uM, NCC library screen, sheet "All OLga data", relative to quetiapine, read-out: 2 uM (% Quet)
[7] = Rattus norvegicus, test compound at 10 uM, NCC library screen, sheet "All OLga data", relative to quetiapine, read-out: 10 uM (% Quet)
[8] = alamarBlue viability of expanded OPCs, compound at 0.1 µM, relative to DMSO control
[9] = alamarBlue viability of expanded OPCs, compound at 1 µM, relative to DMSO control
[10] = alamarBlue viability of expanded OPCs, compound at 10 µM, relative to DMSO control
[11] = read-out: 0.1 µM (% DMSO), alamarBlue viability of expanded OPCs, compound at 0.1 µM, sheet All Tox data
[12] = read-out: 1 µM (% DMSO), alamarBlue viability of expanded OPCs, compound at 1 µM, sheet All Tox data
[13] = read-out: 10 µM (% DMSO), alamarBlue viability of expanded OPCs, compound at 10 µM, sheet All Tox data
[14] = Rattus norvegicus, 2 uM test compound, relative to quetiapine, sheet "All OLga data", read-out: OL differentiation, 2 uM (% Quet)
[15] = Rattus norvegicus, 10 uM test compound, relative to quetiapine, sheet "All OLga data", read-out: OL differentiation, 10 uM (% Quet)
[16] = alamarBlue viability, NCC library compound at 0.1 µM, sheet "All Tox data"
[17] = alamarBlue viability, NCC library compound at 1 µM, sheet "All Tox data"
[18] = alamarBlue viability, NCC library compound at 10 µM, sheet "All Tox data"
[19] = test compound at 2 uM, NCC library screen, sheet "All OLga data", relative to quetiapine
[20] = test compound at 10 uM, NCC library screen, sheet "All OLga data", relative to quetiapine
[21] = Rattus norvegicus, test compound at 2 uM, MBP expression relative to quetiapine, NCC library screen, sheet "All OLga data", read-out: 2 uM (% Quet)
[22] = Rattus norvegicus, test compound at 10 uM, MBP expression relative to quetiapine, NCC library screen, sheet "All OLga data", read-out: 10 uM (% Quet)
[23] = Rattus norvegicus, 0.4 uM test compound, relative to quetiapine, sheet "All OLga data", read-out: OL differentiation, 0.4 uM (% Quet)

COc1ccc(CC2c3cc(OC)c(OC)cc3CC[N+]2(C)CCC(=O)OCCCCCOC(=O)CC[N+]2(C)CCc3cc(OC)c(OC)cc3C2Cc2ccc(OC)c(OC)c2)cc1OC (stereo not drawn) [Atracurium]
viability at 0.1 µM (expanded OPCs; [2]): 84.6% | viability at 1 µM (expanded OPCs; [3]): 75.3% | viability at 10 µM (expanded OPCs; [4]): 56.2% | activation at 0.4 µM [1, 5]: 9.5% | activation at 2 µM [1, 6]: -83%

Nc1ncnc2c1ncn2[C@@H]1O[C@H](CO)[C@@H](O)[C@H]1O [Adenosine]
viability at 0.1 µM (expanded OPCs; [2]): 88.5% | viability at 1 µM (expanded OPCs; [3]): 81.3% | viability at 10 µM (expanded OPCs; [4]): 80.5% | activation at 2 µM [1, 6]: 3.3% | activation at 10 µM [1, 7]: -9.9%

O=C(c1ccc(OCCN2CCCCC2)cc1)c1c(-c2ccc(O)cc2)sc2cc(O)ccc12 [Raloxifene, reference compound]
0.1 µM (% DMSO) (expanded OPCs; [8]): 161.1 % DMSO | 1 µM (% DMSO) (expanded OPCs; [9]): 38.6 % DMSO | 10 µM (% DMSO) (expanded OPCs; [10]): 7.7 % DMSO | activation at 0.08 µM ([1]; Rattus norvegicus, test compound at 0.08 uM, MBP expression relative to quetiapine, NCC library screen, sheet "All OLga data", read-out: 0.08 uM (% Quet)): 91.9% | activation at 0.4 µM ([1]; Rattus norvegicus, test compound at 0.4 uM, MBP expression relative to quetiapine, NCC library screen, sheet "All OLga data", read-out: 0.4 uM (% Quet)): -62.1% | EC50 ([1]; Rattus norvegicus, average EC50 for induction of OL differentiation from independent biological replicates, eight concentrations): 100 nM | hit in OL differentiation assay, MRF-TMC ([1]; ● = confirmed hit in this paper's assay): ●

Cc1ccnc2c1NC(=O)c1cccnc1N2C1CC1 [Nevirapine]
viability at 0.1 µM (expanded OPCs; [11]): 93.7% | viability at 1 µM (expanded OPCs; [12]): 90.2% | viability at 10 µM (expanded OPCs; [13]): 93.3% | activation at 2 µM [1, 14]: 0.24% | activation at 10 µM [1, 15]: 15.9%

O=c1cnn([C@@H]2O[C@H](CO)[C@@H](O)[C@H]2O)c(=O)[nH]1 [Azauridine]
0.1 µM (% DMSO) (expanded OPCs; [16]): 94.5 % DMSO | 1 µM (% DMSO) (expanded OPCs; [17]): 93.6 % DMSO | 10 µM (% DMSO) (expanded OPCs; [18]): 80.3 % DMSO | 2 uM (% Quet) [1, 19]: -8.7 % Quet | 10 uM (% Quet) [1, 20]: -6.4 % Quet

CNS(=O)(=O)Cc1ccc2[nH]cc(CCN(C)C)c2c1 [Sumatriptan]
viability at 0.1 µM (expanded OPCs; [2]): 95.1% | viability at 1 µM (expanded OPCs; [3]): 98.2% | viability at 10 µM (expanded OPCs; [4]): 92.1% | activation at 2 µM [1, 14]: 69.1% | activation at 10 µM [1, 15]: 84.6%

CN(C)CCCN1c2ccccc2Sc2ccc(Cl)cc21 [Chlorpromazine]
viability at 0.1 µM (expanded OPCs; [2]): 67.2% | viability at 1 µM (expanded OPCs; [3]): 38.2% | viability at 10 µM (expanded OPCs; [4]): 10.5% | activation at 0.08 µM ([1]; Rattus norvegicus, test compound at 0.08 uM, NCC library screen, sheet "All OLga data", relative to quetiapine, read-out: 0.08 uM (% Quet)): 7.4% | activation at 0.4 µM [1, 5]: -44.8%

CC(=O)OCC(=O)[C@@]1(O)CC[C@H]2[C@@H]3CCC4=CC(=O)C=C[C@]4(C)[C@H]3[C@@H](O)C[C@@]21C [Prednisolone acetate]
0.1 µM (% DMSO) (expanded OPCs; [8]): 112.3 % DMSO | 1 µM (% DMSO) (expanded OPCs; [9]): 112.6 % DMSO | 10 µM (% DMSO) (expanded OPCs; [10]): 109.9 % DMSO | activation at 2 µM [1, 21]: -3.3% | activation at 10 µM [1, 22]: -37.1%

CCOC(=O)[C@H](CCc1ccccc1)N[C@H]1CCc2ccccc2N(CC(=O)O)C1=O [Benazepril]
viability at 0.1 µM (expanded OPCs; [11]): 84.6% | viability at 1 µM (expanded OPCs; [12]): 88.2% | viability at 10 µM (expanded OPCs; [13]): 93.6% | activation at 2 µM [1, 14]: -27.7% | activation at 10 µM [1, 15]: -26.2%

CN(C)CCOC(c1ccccc1)c1ccccc1 [Diphenhydramine]
viability at 0.1 µM (expanded OPCs; [11]): 79.3% | viability at 1 µM (expanded OPCs; [12]): 80% | viability at 10 µM (expanded OPCs; [13]): 62.4% | activation at 2 µM [1, 14]: 3.5% | activation at 10 µM [1, 15]: 30%

O=C1c2cccc3c2[C@H](CCC3)CN1[C@@H]1CN2CCC1CC2 [Palonosetron]
viability at 0.1 µM (expanded OPCs; [2]): 93% | viability at 1 µM (expanded OPCs; [3]): 92.4% | viability at 10 µM (expanded OPCs; [4]): 72.1% | activation at 2 µM [1, 6]: 13.3% | activation at 10 µM [1, 7]: 29.7%

COC(=O)C1=C(C)NC(C)=C(C(=O)OC(C)C)C1c1cccc2nonc12 (stereo not drawn) [Isradipine]
viability at 0.1 µM (expanded OPCs; [2]): 89.4% | viability at 1 µM (expanded OPCs; [3]): 80.5% | viability at 10 µM (expanded OPCs; [4]): 45.6% | activation at 0.4 µM [1, 23]: -7.2% | activation at 2 µM [1, 14]: -6.1%

CC(C)Cc1ccc(C(C)C(=O)O)cc1 (stereo not drawn) [Ibuprofen]
0.1 µM (% DMSO) (expanded OPCs; [8]): 91.7 % DMSO | 1 µM (% DMSO) (expanded OPCs; [9]): 90.2 % DMSO | 10 µM (% DMSO) (expanded OPCs; [10]): 89.1 % DMSO | activation at 2 µM [1, 6]: 12% | activation at 10 µM [1, 7]: -9.8%

CC(C)(C)NC(=O)[C@@H]1C[C@@H]2CCCC[C@@H]2CN1C[C@@H](O)[C@H](Cc1ccccc1)NC(=O)[C@H](CC(N)=O)NC(=O)c1ccc2ccccc2n1 [Saquinavir]
viability at 0.1 µM (expanded OPCs; [2]): 95% | viability at 1 µM (expanded OPCs; [3]): 88.9% | viability at 10 µM (expanded OPCs; [4]): 14.5% | activation at 0.4 µM [1, 23]: -24.5% | activation at 2 µM [1, 14]: -82.7%

Cc1ccc(Cl)c(Nc2ccccc2C(=O)O)c1Cl [Meclofenamic acid]
0.1 µM (% DMSO) (expanded OPCs; [8]): 91.1 % DMSO | 1 µM (% DMSO) (expanded OPCs; [9]): 93.6 % DMSO | 10 µM (% DMSO) (expanded OPCs; [10]): 93.6 % DMSO | activation at 2 µM [1, 21]: 14.1% | activation at 10 µM [1, 22]: -2.1%

C[C@]12C[C@H](O)[C@H]3[C@@H](CCC4=CC(=O)CC[C@@]43C)[C@@H]1CC[C@@H]2C(=O)CO [Corticosterone]
viability at 0.1 µM (expanded OPCs; [2]): 105% | viability at 1 µM (expanded OPCs; [3]): 108% | viability at 10 µM (expanded OPCs; [4]): 102% | activation at 2 µM [1, 6]: 20.1% | activation at 10 µM [1, 7]: 17.1%

CC1(C)O[C@@H]2C[C@H]3[C@@H]4C[C@H](F)C5=CC(=O)C=C[C@]5(C)[C@@]4(F)[C@@H](O)C[C@]3(C)[C@]2(C(=O)CO)O1 [Fluocinolone Acetonide]
viability at 0.1 µM (expanded OPCs; [2]): 116% | viability at 1 µM (expanded OPCs; [3]): 118% | viability at 10 µM (expanded OPCs; [4]): 111% | activation at 2 µM [1, 6]: 12.9% | activation at 10 µM [1, 7]: 9.2%

C[C@]12CC[C@@H]3c4ccc(OS(=O)(=O)O)cc4CC[C@H]3[C@@H]1CCC2=O [Estrone sulfate]
0.1 µM (% DMSO) (expanded OPCs; [16]): 94.4 % DMSO | 1 µM (% DMSO) (expanded OPCs; [17]): 83.6 % DMSO | 10 µM (% DMSO) (expanded OPCs; [18]): 92.4 % DMSO | 2 uM (% Quet) [1, 19]: 12.5 % Quet | 10 uM (% Quet) [1, 20]: 10.2 % Quet

O=C1c2c(O)cc(O)cc2OC(c2ccc(O)c(O)c2)C1O (stereo not drawn) [Distylin]
0.1 µM (% DMSO) (expanded OPCs; alamarBlue viability of expanded OPCs, compound at 0.1 µM, sheet All Tox data): 109.5 % DMSO | 1 µM (% DMSO) (expanded OPCs; alamarBlue viability of expanded OPCs, compound at 1 µM, sheet All Tox data): 92.1 % DMSO | 10 µM (% DMSO) (expanded OPCs; alamarBlue viability of expanded OPCs, compound at 10 µM, sheet All Tox data): 99.3 % DMSO | OL differentiation, 2 uM (% Quet) ([1]; 2 uM test compound, relative to quetiapine, sheet "All OLga data"): 7.2 % Quet | OL differentiation, 10 uM (% Quet) ([1]; 10 uM test compound, relative to quetiapine, sheet "All OLga data"): -26.1 % Quet

O=c1c(O[C@@H]2O[C@H](CO)[C@H](O)[C@H](O)[C@H]2O)c(-c2ccc(O)c(O)c2)oc2cc(O)cc(O)c12 [Hyperoside]
viability at 0.1 µM (expanded OPCs; [11]): 90.3% | viability at 1 µM (expanded OPCs; [12]): 29.8% | viability at 10 µM (expanded OPCs; [13]): 14.6% | activation at 0.08 µM ([1]; Rattus norvegicus, 0.08 uM test compound, relative to quetiapine, sheet "All OLga data", read-out: OL differentiation, 0.08 uM (% Quet)): -14.3% | activation at 0.4 µM [1, 23]: -70.9%
